Key:
Type in all cases: in vivo, rat
[1] = test system: morphine self-administration; assay: intravenous morphine self-administration; conditions: 18-methoxycoronaridine 1 mg/kg i.p., dextromethorphan 5 mg/kg s.c.
Method: Dextromethorphan hydrobromide (5 mg/kg; Sigma/RBI, St. Louis, Mo.) was dissolved in saline and injected subcutaneously 20 minutes before testing. Mecamylamine hydrochloride (1 mg/kg; Sigma/RBI, St. Louis, Mo.) was dissolved in physiological saline and injected intraperitoneally 30 minutes before testing. All rats received two injections. For rats that received a single drug, half of them also received the appropriate saline/vehicle injection corresponding to each of the other two drugs.
Naive female Long-Evans derived rats (250 g; Charles River, N.Y.) were maintained on a normal 12 h light cycle (lights on at 7:00 a.m., lights off at 7:00 p.m.). For all experiments the “Principles of Laboratory Animal Care” (NIH publication No. 85-23, revised 1985, which is hereby incorporated by reference) were followed.
The intravenous self-administration procedure described in Glick et al., “18-MC Reduces Methamphetamine and Nicotine Self-administration in Rats,” NeuroReport 11:2013-2015 (2000) (“Glick I”), which is hereby incorporated by reference, was employed. Briefly, responses on either of two levers (mounted 15 cm apart on the front wall of each operant test cage) were recorded on an IBM compatible computer with a Med Associates, Inc. interface. The intravenous self-administration system consisted of polyethylene-silicone cannulas constructed according to the design of Weeks, “Long-term Intravenous Infusion,” pp. 155-168 in Myers (ed.), Methods in Psychobiology, Vol. 2, New York: Academic Press (1972) (“Weeks”), which is hereby incorporated by reference; Instech harnesses and swivels; and Harvard Apparatus infusion pumps (#55-2222). Shaping of the bar-press response was initially accomplished by training rats to bar-press for water. Cannulas were then implanted in the external jugular vein according to procedures described in Weeks, which is hereby incorporated by reference. Self-administration testing began with a 16-h nocturnal session followed by daily 1-h sessions, 5 days (Monday-Friday) a week. A lever-press response produced a 10 μl infusion of drug solution (0.01 mg of morphine sulfate) in about 0.2 s or a 50 μl infusion of drug solution (0.025 mg of methamphetamine sulfate) in about 1 s. Since all rats generally weighed 250±20 g, each response delivered approximately 0.04 mg/kg of morphine or 0.1 mg/kg of methamphetamine. Experiments to assess the effects of experimental treatments were begun when baseline self-administration rates stabilized (≦10% variation from one day to the next across 5 days), usually after 2 weeks of testing.
Each data point represents the mean (±S.E.M.) percent of baseline of 6-8 rats. Significant differences between baseline and treatment are indicated by an asterisk (paired t-test, P<0.01-0.001).
Each data point represents the mean (±S.E.M.) percent of baseline of 5-8 rats. Significant differences between baseline and treatment are indicated by an asterisk (paired t-test), P<0.05-0.01).

[2] = test system: methamphetamine self-administration; assay: intravenous methamphetamine self-administration
[3] = test system: nicotine self-administration; assay: nicotine self-administration; conditions: Example 7, FIGS. 11-12: mecamylamine 0.1 mg/kg i.p., 18-methoxycoronaridine 0.5 mg/kg i.p., dextromethorphan 0.5 mg/kg s.c., bupropion 5 mg/kg i.p.; 5-8 rats
responding for water = assay: bar-pressing (responding) for water; conditions: dose of 3 mg/kg, alone, data not shown
[4] = Example 5, FIG. 5: mecamylamine 1 mg/kg i.p., 6-8 rats
[5] = Example 6, FIG. 8: mecamylamine 1 mg/kg i.p., bupropion 5 mg/kg i.p., 5-8 rats
[6] = Example 5, FIG. 6: mecamylamine 1 mg/kg i.p., 18-methoxycoronaridine 2 mg/kg i.p., dextromethorphan 5 mg/kg s.c., 6-7 rats
[7] = Example 6, FIG. 9: mecamylamine 1 mg/kg i.p., 18-methoxycoronaridine 5 mg/kg i.p., dextromethorphan 10 mg/kg s.c., bupropion 10 mg/kg i.p., 5-9 rats

COc1ccc2c(c1)[C@]13CCCC[C@@H]1[C@H](C2)N(C)CC3 [dextromethorphan] was tested, and the “effect on morphine self-administration (percent of baseline)” value [1, 4] was “none of the drugs administered alone, significantly decreased”, the “effect on morphine self-administration (percent of baseline)” value [1, 5] was “none of the drugs administered alone, significantly decreased” and the “effect on methamphetamine self-administration (percent of baseline)” value [2, 6] was “none of the drugs administered alone, significantly decreased”. The “effect on methamphetamine self-administration (percent of baseline)” value [2, 7] was “none of the drugs administered alone, significantly decreased” and the “effect on nicotine self-administration (percent of baseline)” value [3] was “none of the drugs administered alone, significantly decreased”.
In the case of CNC1(C)C2CCC(C2)C1(C)C (centres unmarked) [mecamylamine], the “effect on morphine self-administration (percent of baseline)” value [1, 4] is reported as “none of the drugs administered alone, significantly decreased”, the “effect on morphine self-administration (percent of baseline)” value [1, 5] is reported as “none of the drugs administered alone, significantly decreased” and the “effect on methamphetamine self-administration (percent of baseline)” value [2, 6] is reported as “none of the drugs administered alone, significantly decreased”. For the same compound, the “effect on methamphetamine self-administration (percent of baseline)” value [2, 7] was “none of the drugs administered alone, significantly decreased”, the “effect on responding for water” value (responding for water) was “decreases responding for water” and the “effect on nicotine self-administration (percent of baseline)” value [3] was “none of the drugs administered alone, significantly decreased”.

— US6780871B2, “Methods and compositions for treating addiction disorders” (Albany Medical College, priority 2001, dated 2004)
